{"source": "patent US12691118B2", "about": "“Allosteric agonists and positive allosteric modulators of Glucagon-like peptide 1 receptor” (University of the Sciences, priority 2019, dated 2026)", "key": {"INS-1 832/13 cells": {"system": "INS-1 832/13 cells", "assay": "Glucose stimulated insulin production in INS-1 832/13 cells", "format": "cell-based, rat", "details": "16.7 mM glucose", "procedure": "INS-1 832/13 cells were cultured in RPMI 1640 supplemented with 2 mM L-glutamine, 1 mM sodium pyruvate, 10% FBS, 10 mM HEPES, 100 units/ml penicillin, 100 μg/ml streptomycin, and 50 μM β-mercaptoethanol. Cells were maintained in an incubator at 37° C. with 5% CO2. To determine the effect of GLP-1R agonist Ia and PAM Ib on insulin production, INS-1 cells were seeded onto 24 well plates. After 48 hours of incubation, cells were washed twice with 200 μl of Krebs-Ringer Bicarbonate (KRB) buffer and starved for 2 hours in fresh KRB supplemented with 0.1% serum. […] After 20 minutes, the supernatant was collected, centrifuged at 1000 rpm for 5 min at 4° C., and aliquoted and stored at −20° C. These samples were used to determine insulin concentration using insulin detection kit ELISA following the manual."}, "human GLP-1R": {"molecular_target": "T1, human GLP-1R (Homo sapiens, UniProt P43220)", "T1 construct": "Flag (N); host or cells: HEK293 cells stably expressing CRE/CREB luciferase reporter (BPS Bioscience #60515)", "T1 sequence (P43220 24-463)": "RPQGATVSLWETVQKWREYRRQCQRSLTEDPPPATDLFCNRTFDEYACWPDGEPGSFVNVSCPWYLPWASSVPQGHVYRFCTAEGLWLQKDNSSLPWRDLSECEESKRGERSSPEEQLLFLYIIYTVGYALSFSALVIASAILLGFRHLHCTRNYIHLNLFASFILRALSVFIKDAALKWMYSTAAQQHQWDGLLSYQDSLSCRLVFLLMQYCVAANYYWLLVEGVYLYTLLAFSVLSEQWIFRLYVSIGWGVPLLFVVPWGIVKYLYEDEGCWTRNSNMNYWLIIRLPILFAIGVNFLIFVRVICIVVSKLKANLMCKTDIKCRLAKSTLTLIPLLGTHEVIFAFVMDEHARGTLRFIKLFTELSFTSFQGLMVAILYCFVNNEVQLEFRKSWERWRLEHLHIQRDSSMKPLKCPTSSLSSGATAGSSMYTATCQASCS", "assay": "CRE luciferase reporter assay in HEK293 cells transiently expressing human GLP-1R", "format": "cell-based", "details": "for GLP-1R activity stimulated by GLP-1 in combination with compound vs GLP-1 alone: GLP-1 0.014 nM-145 nM", "procedure": "HEK293 cells stably expressing CRE/CREB Reporter (luciferase) were cultured in RPMI medium supplemented with 8% (v/v) fetal bovine serum, 2% (v/v) penicillin/streptomycin, and 100 μg/ml of Hygromycin B. Cells were maintained in an incubator at 37° C. with 5% CO2. Cells were seeded into 6-well cell culture plates one day before transfection. After overnight incubation, one well of cell was transiently transfected with 3.4 μg of human GLP-1R or empty vector, respectively, using lipofectamine 2000. After 4 hours of transfection, transfection medium was replaced by RPMI medium supplemented with 5% (v/v) fetal bovine serum and 2% (v/v) penicillin/streptomycin. After 24 hours of incubation, cells were trypsinized and seeded into 96 well cell culture plates (5.5× 10^4 cells per well) and maintained at 37° C. in 5% CO2 incubator for 24 hours. The cells were starved using RPMI with 0.5% sera. After 24 hours of starvation, the transfected cells were treated with compounds as indicated.\n(§1) Compounds dissolved in 100% DMSO were diluted to indicated concentration in RPMI 1640 (0.5% DMSO included for all cell culture). After 4 hours of treatment, cells were harvested by cold luciferase cell culture lysis buffer and kept on shaker for 10 min at 4° C. Luciferase activity was measured using luciferin substrate and luminescence was read by Wallac 1420 multiplate reader. Luciferase activity of HEK293 reporting cells cultured using 0.5% DMSO and full RPMI medium was used as a vehicle control. Protein concentration of each well was determined by Bradford assay.\nThe concentration-dependent dose response curve was generated using Graph Pad Prism 6.0 for Mac (GraphPad Software Inc., San Diego, CA). The curves were fitted based on sigmoidal dose response with the bottom parameter being kept 0. The EC50 value was calculated from Prism. The statistical difference between different groups was analyzed by 2-way ANOVA module in Prism."}, "[1]": {"molecular_target": "T2, Vasoactive Intestinal Polypeptide Receptor 1 (VIPR1) (Homo sapiens, UniProt P32241)", "T2 construct": "host or cells: HEK293 cells stably expressing CRE/CREB luciferase reporter", "T2 sequence (P32241 31-457)": "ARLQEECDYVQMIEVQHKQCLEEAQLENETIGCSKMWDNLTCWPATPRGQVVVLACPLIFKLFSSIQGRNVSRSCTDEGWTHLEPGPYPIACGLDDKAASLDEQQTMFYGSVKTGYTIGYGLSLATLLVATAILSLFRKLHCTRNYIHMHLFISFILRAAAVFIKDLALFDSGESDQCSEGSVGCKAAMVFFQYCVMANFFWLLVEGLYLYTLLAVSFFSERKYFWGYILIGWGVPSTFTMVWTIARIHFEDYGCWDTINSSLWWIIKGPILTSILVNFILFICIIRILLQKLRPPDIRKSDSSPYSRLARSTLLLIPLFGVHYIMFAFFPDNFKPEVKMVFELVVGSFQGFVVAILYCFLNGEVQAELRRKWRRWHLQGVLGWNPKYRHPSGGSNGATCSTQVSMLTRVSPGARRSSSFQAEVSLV", "assay": "Non-specific effect on VIPR1, luciferase assay in HEK293 cells overexpressing VIPR1", "format": "cell-based", "details": "Ib 23.5 μM; VIPR peptide agonist 0.014 nM-145 nM", "procedure": "as §1\nHEK293 cells stably expressing CRE/CREB Reporter (luciferase) were cultured in RPMI 1640 supplemented with 8% (v/v) fetal bovine serum, 2% (v/v) penicillin/streptomycin, and 100 μg/ml of Hygromycin B. Cells were maintained at 37° C. with 5% CO2. Cells were seeded into 6-well cell culture plates one day before transfection. After overnight incubation, cells were transiently transfected with 3.4 μg of VIPR1, using Lipofectamine 2000. After 4 hours of transfection, medium was replaced by RPMI supplemented with 5% (v/v) fetal bovine serum. After 24 hours of incubation, cells were trypsinized and seeded into 96 well cell culture plates (5.5×10^4 cells per well) and maintained at 37° C. in 5% CO2 for 24 hours. After 24 hours of incubation, the cells were starved with RPMI with 0.5% sera. […]"}, "[2]": {"assay": "Compound stability (statement)", "format": "physicochemical"}}, "note": "Entries after “also recorded” stand apart in the source; their conditions may differ. Ends that are not written are not given here."}
{"molecule": "CCOC(=O)c1c(N)sc2c1CCCC2C", "note": "(centres unmarked) [Compound Ib, ethyl 2-amino-7-methyl-4,5,6,7-tetrahydrobenzo[b]thiophene-3-carboxylate]", "values": [{"measurement": "insulin secretion, Ib in combination with GLP-1 vs GLP-1 alone", "setting": "INS-1 832/13 cells; Ib 11.75 μM + GLP-1 0.18 μM", "value": "more than 2.5 fold"}, {"measurement": "amount of insulin produced by Ib compared with vehicle control", "setting": "INS-1 832/13 cells; Ib 11.75 μM alone", "value": "no significant difference"}, {"measurement": "GLP-1R activity stimulated by GLP-1 in combination with compound vs GLP-1 alone", "setting": "human GLP-1R; Ib 23.5 μM", "value": "significantly increased"}, {"measurement": "non-specific activity on VIPR1 (VIPR1 activity with VIPR agonist in combination with Ib vs agonist alone)", "setting": "[1]", "value": "did not induce non-specific activity; also recorded: no potential non-specific activity on VIPR1"}]}
{"molecule": "CC1CCCc2c1sc1nc(S)n(N)c(=O)c21", "note": "(centres unmarked) [Compound Ic, 3-amino-2-mercapto-8-methyl-5,6,7,8-tetrahydrobenzo[4,5]thieno[2,3-d]pyrimidin-4(3H)-one]", "values": [{"measurement": "GLP-1R activity stimulated by GLP-1 in combination with compound vs GLP-1 alone", "setting": "human GLP-1R; Ic 71 μM", "value": "significantly increased"}, {"measurement": "potency as PAM (statement)", "setting": "human GLP-1R; compared with Ib", "value": "less potent"}, {"measurement": "stability (statement)", "setting": "[2]", "value": "unstable"}]}
{"molecule": "GLP-1: GLP-1R peptide agonist (Sigma #9416), endogenous ligand of GLP-1R (HAEGTFTSDVSSYLEGQAAKEFIAWLVKGR; ends and bridges not checked; UniProt P01275 98-127, looked up) [reference compound]", "values": [{"measurement": "insulin production compared to vehicle control", "setting": "INS-1 832/13 cells; GLP-1 0.18 μM, both time points", "value": "more than two-fold"}]}
